From the CheMixHub viscosity set

Assay: xn = mol fraction of the nth substance listed

CN(C)c1ccccc1 + COc1ccccc1
viscosity [mPa·s], 101 kPa
Conditions | x1 = 0.1072 | x1 = 0.2092 | x1 = 0.3052 | x1 = 0.406 | x1 = 0.5082 | x1 = 0.6053 | x1 = 0.6916 | x1 = 0.7895 | x1 = 0.8939
293.15 K | 1.123 | 1.171 | 1.21 | 1.247 | 1.281 | 1.309 | 1.331 | 1.349 | 1.359
298.15 K | 1.039 | 1.083 | 1.124 | 1.159 | 1.191 | 1.22 | 1.241 | 1.255 | 1.27
303.15 K | 0.957 | 0.994 | 1.032 | 1.064 | 1.092 | 1.116 | 1.135 | 1.142 | 1.158
308.15 K | 0.887 | 0.917 | 0.949 | 0.98 | 1.004 | 1.025 | 1.036 | 1.042 | 1.056
313.15 K | 0.811 | 0.838 | 0.866 | 0.897 | 0.92 | 0.936 | 0.947 | 0.955 | 0.969
318.15 K | 0.767 | 0.791 | 0.815 | 0.845 | 0.869 | 0.883 | 0.889 | 0.898 | 0.911
323.15 K | 0.709 | 0.728 | 0.751 | 0.778 | 0.8 | 0.811 | 0.814 | 0.823 | 0.836

CC(=O)CC(C)=O + CC(C)CCO
298.15 K, 101 kPa
Conditions | viscosity [mPa·s]
x1 = 0.1 | 2.622
x1 = 0.2 | 1.997
x1 = 0.3 | 1.558
x1 = 0.4 | 1.26
x1 = 0.5 | 1.063
x1 = 0.6 | 0.933
x1 = 0.7 | 0.844
x1 = 0.8 | 0.778
x1 = 0.9 | 0.729

CC(C)(N)CO + C1CNCCN1
viscosity [mPa·s], 101 kPa
Conditions | x2 = 0.02 | x2 = 0.04 | x2 = 0.06 | x2 = 0.08 | x2 = 0.1 | x2 = 0.12 | x2 = 0.14 | x2 = 0.16 | x2 = 0.18
303.15 K | 95.41 | 91.27 | 86.75 | 83 | 79.54 | 76.81 | 74.64 | 71.81 | 71
313.15 K | 43.72 | 41.54 | 38.97 | 37.34 | 36.06 | 35.06 | 34.1 | 33.76 | 33.69
323.15 K | 24.41 | 23.46 | 22.58 | 21.64 | 20.53 | 19.63 | 18.74 | 17.8 | 17.07

C=CC#N + CCO
viscosity [mPa·s], 101.33 kPa
Conditions | x1 = 0.1008 | x1 = 0.1009 | x1 = 0.2017 | x1 = 0.3022 | x1 = 0.403 | x1 = 0.5025 | x1 = 0.6044 | x1 = 0.7032 | x1 = 0.8006 | x1 = 0.8993
298.15 K | – | 0.859 | 0.704 | 0.593 | 0.513 | 0.458 | 0.415 | 0.384 | 0.363 | 0.348
303.15 K | – | 0.787 | 0.648 | 0.551 | 0.48 | 0.431 | 0.392 | 0.364 | 0.345 | 0.332
308.15 K | 0.724 | – | 0.602 | 0.513 | 0.451 | 0.405 | 0.371 | 0.347 | 0.329 | 0.318

Cc1ccc(C(C)C)cc1 + CCCCCC
298.15 K, 101.33 kPa
Conditions | viscosity [mPa·s]
x2 = 0.0316 | 0.768
x2 = 0.0656 | 0.745
x2 = 0.0967 | 0.723
x2 = 0.1908 | 0.662
x2 = 0.2812 | 0.599
x2 = 0.3795 | 0.538
x2 = 0.5183 | 0.474
x2 = 0.6271 | 0.424
x2 = 0.7093 | 0.393
x2 = 0.8209 | 0.349
x2 = 0.9331 | 0.314

C=CC#N + CCCCCCO
viscosity [mPa·s], 101.33 kPa
Conditions | x1 = 0.1023 | x1 = 0.2036 | x1 = 0.3089 | x1 = 0.4105 | x1 = 0.5081 | x1 = 0.6117 | x1 = 0.7084 | x1 = 0.8056 | x1 = 0.9019
298.15 K | 3.139 | 2.308 | 1.705 | 1.3 | 1.006 | 0.774 | 0.617 | 0.495 | 0.41
303.15 K | 2.727 | 2.03 | 1.522 | 1.175 | 0.916 | 0.712 | 0.571 | 0.466 | 0.388
308.15 K | 2.38 | 1.799 | 1.365 | 1.063 | 0.84 | 0.661 | 0.533 | 0.439 | 0.37

COC(C)OC + CC1COC(=O)O1
298.15 K, 101 kPa
Conditions | viscosity [mPa·s]
x2 = 0.1205 | 4.91
x2 = 0.2621 | 6.2
x2 = 0.3779 | 7.53
x2 = 0.4836 | 9.05
x2 = 0.7185 | 13.82

CCCCC(C)O (stereo not given) + CCCCCCCCCCCC
298.15 K, 101 kPa
Conditions | viscosity [mPa·s]
x2 = 0.0555 | 3.6
x2 = 0.0999 | 3.24
x2 = 0.1555 | 2.84
x2 = 0.1999 | 2.55
x2 = 0.2554 | 2.24
x2 = 0.2999 | 2.01
x2 = 0.3555 | 1.77
x2 = 0.3998 | 1.6
x2 = 0.4555 | 1.42
x2 = 0.4999 | 1.31
x2 = 0.5554 | 1.19
x2 = 0.5998 | 1.12
x2 = 0.6554 | 1.05
x2 = 0.6999 | 1.02
x2 = 0.7555 | 1
x2 = 0.7997 | 1
x2 = 0.8555 | 1.02
x2 = 0.8998 | 1.04
x2 = 0.9555 | 1.09

CC(=O)[O-].CCCC[NH3+] + CO
101.3 kPa
Conditions | viscosity [mPa·s]
293.15 K, x1 = 0.7993 | 256.5
298.15 K, x1 = 0.8988 | 312.5

C=CC#N + CC(=O)N(C)C
303.15 K, 101.3 kPa
Conditions | viscosity [mPa·s]
x1 = 0.0998 | 0.8246
x1 = 0.1982 | 0.7637
x1 = 0.297 | 0.7048
x1 = 0.3941 | 0.6449
x1 = 0.5009 | 0.5797
x1 = 0.5995 | 0.5228
x1 = 0.6984 | 0.4682
x1 = 0.7976 | 0.4132
x1 = 0.9005 | 0.3591

CCC(C)(C)O + COC(C)=O
298.15 K, 101.33 kPa
Conditions | viscosity [mPa·s]
x2 = 0.1632 | 1.792
x2 = 0.2443 | 1.33
x2 = 0.35 | 0.96
x2 = 0.448 | 0.787
x2 = 0.5246 | 0.677
x2 = 0.6222 | 0.57
x2 = 0.7221 | 0.496
x2 = 0.8153 | 0.434
x2 = 0.9107 | 0.395

CCCCN(CCCC)CCCC + CCCCO
viscosity [mPa·s]
Conditions | 303.15 K | 313.15 K
101 kPa, x1 = 0.007767 | 2.245 | –
101 kPa, x1 = 0.01457 | 2.236 | –
101 kPa, x1 = 0.02285 | 2.226 | –
101 kPa, x1 = 0.03362 | 2.211 | –
101 kPa, x1 = 0.04436 | 2.197 | –
101 kPa, x1 = 0.04946 | 2.191 | –
101 kPa, x1 = 0.05954 | 2.178 | –
101 kPa, x1 = 0.07271 | 2.16 | –
101 kPa, x1 = 0.08924 | 2.138 | –
101.3 kPa, x1 = 0.0942 | 2.159 | 1.71
101.3 kPa, x1 = 0.1897 | 2.028 | 1.608
101.3 kPa, x1 = 0.3149 | 1.877 | 1.481
101.3 kPa, x1 = 0.4192 | 1.766 | 1.393
101.3 kPa, x1 = 0.5187 | 1.65 | 1.311
101.3 kPa, x1 = 0.618 | 1.542 | 1.231
101.3 kPa, x1 = 0.7149 | 1.448 | 1.154
101.3 kPa, x1 = 0.8007 | 1.365 | 1.102
101.3 kPa, x1 = 0.9031 | 1.256 | 1.047
